From ChEMBL document CHEMBL5375950, “Chemical genetic approaches for the discovery of bacterial cell wall inhibitors” (2023)
≈ marks a conversion by molar mass, not a printed value.

System: Escherichia coli
Assay: Antibacterial activity against Escherichia coli MG1655 assessed as inhibition of bacterial growth
Type: functional

MIC: 16 µg/mL (≈ 45.3 µM)
SMILES: COc1ccc(-c2c(-c3ccc(C)s3)[nH]c3[nH]c(=O)[nH]c(=O)c23)cc1
